According to patent US8796282B2, “Method of treating dermatological disorders” (Case Western Reserve University, priority 2007, dated 2014):

What was measured:
[1] = test system: PEX16 gene expression; experiment: PEX16 gene expression in HaCaT keratinocytes treated with PPAR agonists, real-time PCR; type: cell-based, human; conditions: HaCaT cells, 1 μM and 5 μM in 0.1% DMSO, 48 hours
Method: (§1) HaCaT keratinocytes were treated with vehicle alone (0.1% DMSO) or with specific agonists (1 μM and 5 μM in 0.1% DMSO) of PPARγ-Ciglitazone (Cig), Rosiglitazone (Rosi), Pioglitazone (Pio) and Troglitazone (Tro), PPARα-WY-14363 and PPARδ-GW50516. After 48 hours, PEX16 gene expression was measured by real-time PCR.
(§2) We directly assessed the role of PPARγ in modulating peroxisomal gene expression by growing HaCat cells (human keratinocyte cell line) in the presence of PPAR agonists (1 μM and 5 μM concentrations in 0.1% DMSO) and monitoring gene expression by real-time PCR (FIG. 5b). The agonists tested were Ciglitazone (Cig), Rosiglitazone (Rosi), Pioglitazone (Pio) and Troglitazone (Tro) specific for PPARγ, WY-14363 specific for PPARα and GW50516 specific for PPARδ. […] We also examined whether expression of the PEX3 gene is modulated by the PPAR agonist Pioglitazone (Pio) in cultured outer root sheath keratinocytes. Cells were grown in the presence or absence of Pio and PEX3 gene expression was monitored by real-time PCR.
Quantitative real-time RT-PCR. […] The target gene expression in LPP and control samples was quantitated by the comparative CT method as described in the ABI Prism 7700 Sequence Detection System manual (PE Biosystems). […]

[2] = test system: PEX3 gene expression; experiment: PEX3 gene expression in cultured outer root sheath (ORS) keratinocytes treated with PPAR agonists, real-time PCR; type: cell-based, human; conditions: for effect on PEX3 gene expression: cultured outer root sheath keratinocytes
Method: as §1, §2
(§3) Quantitative real-time RT-PCR. FAM labeled PCR primers and TaqMan hydrolysis probes for all target genes and 18S rRNA were purchased from Perkin-Elmer Applied Biosystems (Foster City, Calif.). Real-time PCR was performed on an ABI Prism 7700 Sequence Detection System (PE Biosystems) according to the recommendation of the manufacturer. The target gene expression in LPP and control samples was quantitated by the comparative CT method as described in the ABI Prism 7700 Sequence Detection System manual (PE Biosystems).
Effect of PPARg agonists and antagonists on PEXgenes. Human Hair Follicle Outer Root Sheath Cells (ORS cells) were obtained from ScienCell™ (San Diego, Calif.) and grown in Mesenchymal Stem Cell Medium (MSCM) consisting of 500 ml of basal medium, 25 ml of fetal bovine serum, 5 ml of mesenchymal stem cell growth supplement and 5 ml of penicillin/streptomycin solution. HaCaT cells were cultured in Dulbecco's modified Eagle's medium containing 10% fetal bovine serum under 5% CO2 at 37° C. […]

[3] = test system: PEX genes (PEX3, PEX16, PMP22); experiment: PEX (peroxisomal) gene expression in a human keratocyte cell line / cultured human keratinocytes exposed to PPARγ agonists; type: cell-based; conditions: for expression of peroxisomal genes (PEX3, PEX16, PMP22): qualitative statement, cultured human keratinocytes
Method: as §3
Effect of PPARg agonists and antagonists on PEXgenes. Human Hair Follicle Outer Root Sheath Cells (ORS cells) were obtained from ScienCell™ (San Diego, Calif.) and grown in Mesenchymal Stem Cell Medium (MSCM) consisting of 500 ml of basal medium, 25 ml of fetal bovine serum, 5 ml of mesenchymal stem cell growth supplement and 5 ml of penicillin/streptomycin solution. HaCaT cells were cultured in Dulbecco's modified Eagle's medium containing 10% fetal bovine serum under 5% CO2 at 37° C. The different PPAR agonists were added in triplicate in dimethylsulfoxide (<0.1% by volume) for 48 hours to evaluate their effects on PEX gene expression by real-time PCR.

[4] = test system: Patients with LLP; experiment: Treatment of patients with lichen planopilaris with low dose Actos; type: in vivo, human; conditions: for inflammatory cells in scalp biopsy histology: one patient, H&E
Method: Patients were treated with Actos (Pioglitazone), a PPARγ agonist that is currently used to treat diabetes. Patients with LLP were given a low dose of Actos, i.e., less than about 15 mg/daily. […] The histology of scalp biopsy of one of the patients before, after one year of treatment, and after two years of treatment are shown in FIGS. 18-20. […] Therefore, PPAR agonist is effective in reducing symptoms.

## Cc1cc(SCc2sc(-c3ccc(C(F)(F)F)cc3)nc2C)ccc1OCC(=O)O [GW50516]
[1]
  effect on PEX 16 gene expression: minimal effect
[2]
  effect on PEX3 gene expression: minimal effect

## CC1(COc2ccc(CC3SC(=O)NC3=O)cc2)CCCCC1 (stereo not shown) [Ciglitazone, 5-[4-[(1-methylcyclohexyl)methoxy]benzyl]thiazolidine-2,4-dione]
[3]
  expression of peroxisomal genes (PEX3, PEX16, PMP22): induce the expression

## Cc1cccc(Nc2cc(Cl)nc(SCC(=O)O)n2)c1C [WY-14363]
[1]
  effect on PEX 16 gene expression: minimal effect
[2]
  effect on PEX3 gene expression: minimal effect

## Cc1c(C)c2c(c(C)c1O)CCC(C)(COc1ccc(CC3SC(=O)NC3=O)cc1)O2 (single isomer, unassigned; (+)) [Troglitazone, (+)-5[[4-[(3,4-dihydro-6-hydroxy-2,5,7,8-tetramethyl-2H-1-benzopyran-2-yl)methoxy]phenyl]methyl]-2,4-thiazolidinedione]
[3]
  expression of peroxisomal genes (PEX3, PEX16, PMP22): induce the expression

## CN(CCOc1ccc(CC2SC(=O)NC2=O)cc1)c1ccccn1 (stereo not shown) [Rosiglitazone, 5-[4-[2-(N-methyl-N-(2-pyridyl)amino]ethoxy]benzyl]thiazolidine-2,4-dione]
[3]; human keratocyte cell line
  increase in PEX gene expression: three-fold increase
[3]
  expression of peroxisomal genes (PEX3, PEX16, PMP22): induces the expression

## CCc1ccc(CCOc2ccc(CC3SC(=O)NC3=O)cc2)nc1 (stereo not shown) [Pioglitazone, 5-[4-[2-(5-ethylpyridin-2-yl)ethoxyl]benzyl]thiazolidine-2,4-dione]
[4]; LLP patients, less than about 15 mg/daily, patient-reported
  itching, burning and pain associated with lichen planopilaries: significant decrease
[4]; after 1 year of treatment
  inflammatory cells in scalp biopsy histology: Reduction is already seen
[4]; at two years of treatment
  inflammatory cells in scalp biopsy histology: complete clearing of inflammatory cells
[2]; outer root sheath keratinocytes, 1 μM, compared to vehicle alone (0.1% DMSO)
  increase in PEX3 gene expression: 4 fold
[3]
  expression of peroxisomal genes (PEX3, PEX16, PMP22): induce the expression
